In patent publication US5446023A, “Amphiphilic compounds derived from amino acids or peptides, their methods of synthesis and their application as drug delivery systems” (Alliance Pharmaceutical Corporation, priority 1992, dated 1995):

Experiments:
[1] = Identification of vesicles by (transmission) electronic microscopy, negative staining; format: physicochemical; conditions: for formation of vesicles (transmission electronic microscopy): negative staining, after dispersion; for formation of vesicles: procedure of example 14, 10^-2 M; for formation of vesicles / formation of vesicles upon dispersion with water: electronic microscopy; for formation of vesicles upon dispersion with water: 10^-2 M
Experimental: (§1) Product 6a (30 mg) was dissolved in a mixture of chloroform/methanol (1/1 v/v) in a round 4 mL tube. The solvent was evaporated in a rotavapor until a uniform film was obtained. The remaining traces of solvent were eliminated under vacuum. Water for injectable preparations (3.97 mL) was added to the dried product. After stirring with a Vortex for 3 minutes, sonication (BRANSON B30, 7 mm probe, Power 5, pulsed mode 50, 15 minutes) at 20° C. above the phase-transition temperature gave a bluish dispersion.
The formation of vesicles was observed by transmission electronic microscopy by the negative staining method. The lipidic dispersion was applied on a grid covered with FORMVAR membrane. The sample was colored by depositing of a drop of phosphotungstic acid (2%, pH adjusted to 7) for 1 min. The excess acid was removed using a filter paper. The grid was then dried and the sample was examined using a PHILIPS microscope (CM2 Model) at 80 Kv.
FIG. 1 is a micrography obtained in these conditions on a 10^-2 M dispersion of product 6a.

[2] = Differential scanning calorimetry: phase transition temperature and transition enthalpy; format: physicochemical
Experimental: The phase transition temperatures and the transition enthalpies were determined after hydration by a known quantity of water using a SETARAM DSC-92 apparatus.
Example 22: Product 6d (16 mg) was hydrated with […] of a mixture of water/ethylene glycol 60/40 (hydratation percentage 28%).
Example 23: Product 6a (10.8 mg) was hydrated with a mixture of water/ethylene glycol 60/40 (hydration percentage 37%).

[3] = tested on: lymphoblastoid cell cultures of the Namalva type; experiment: Toxicity on lymphoblastoid cell cultures (Namalva); format: cell-based; conditions: 4 days at 37° C.
Experimental: Example 26: The toxicity of products 6a and 6e was determined on lymphoblastoid cell cultures of the Namalva type in an RPMI medium containing 10% of foetal calf serum at 37° C. under 7% CO2, according to the method described by M. Le Blanc et al in Pharm. Res. 195 (1988).

[4] = format: physicochemical; set-up: formation of vesicles after sonication: dose or concentration left out as unconfirmed
Experimental: as §1
An aqueous dispersion of compound 7b ([…], 60 mM) in citric acid (2 ml, 1M pH=4) was prepared (sonication, probe 3 mm, power5, room temperature, 5 min, mean diameter=35 nm). […] Adriamycin (12 ml, 30 mM) was added to the liposomal dispersion. The amount of drug encapsulated, the stability of encapsulation over time and the release of adriamycin were measured.

[5] = In vivo toxicity in mice, rapid intraperitoneal injection; conditions: mouse, in vivo, ip
Experimental: (§2) In vivo toxicity of products 6a, 6b, 6c in mice. A rapid intraperitoneal injection was made, of 0.5 mL (25 mL/kg animal body weight, n=10) of a dispersion of these products in physiological water.

mice [6] = experiment: as above; conditions: 500 mg/kg
Experimental: as §2

[7] = Observation of vesicles by electronic microscopy after freeze-fracture; format: physicochemical; conditions: 10^-2 M dispersions
Experimental: One drop of lipic dispersion (about […]) was placed on a copper support. Freezing was realized by rapid immersion in liquid propane […]. The fractures were realized using a Balzers BAF 300 at -120° C. under 10^-6 mmHg with a knife cooled to -150° C. The replicas were obtained by depositing a platinum layer (10-20 A) under an angle of 35° then carbon (110-120 A) with an angle of 90°. The replicas were then immersed in water, washed, placed on a copper grid (3 mm, 300 mesh) and examined with a HITACHI 600 electronic microscope (H600) at 75 KV. […] FIG. 2 represents the photomicrographs obtained on 10^-2 M dispersions of products 6b, 7a, 7b.

human erythrocytes = experiment: Hemolytic activity on human erythrocytes; format: cell-based; conditions: concentration of 50 g/l, 1 hour, 37° C.
Experimental: Example 25: The hemolytic activity of products 6h, 6i was determined by adding 2 mL of a solution of these products in physiological water to an equal volume of a 1% suspension of human erythrocytes in an isotonic phosphate buffer. After an hour of incubation at 37° C. the solutions were centrifuged. The degree of hemolysis was determined spectrophotometrically (540 nm) by comparing the quantity of hemoglobin liberated in the supernatant. Compounds 6h, 6i were not hemolytic at a concentration of 50 g/l.

[8] = In vivo toxicity in mice, rapid intravenous injection; conditions: mouse, in vivo, caudal vein, 25 mL/kg, 6i/Pluronic F-68 25/10 g/L, mice, read-out: tolerated dose
Experimental: (§3) Example 24: In vivo toxicity of product 6i in mice. A rapid intravenous injection into the caudal vein, of 0.5 mL (25 mL/kg animal body weight) of a solution of 6i in physiological water, to which Pluronic F-68 was added as dispersant (25/10 g/L, 6i/Pluronic F-68) was made.

mice [9] = experiment: as above; conditions: 625 mg/kg, 1 month of observation, 10 mice
Experimental: as §3

[10] = water/ethylene glycol 60/40, hydration percentage 37%
[11] = intraperitoneal, 25 mL/kg dispersion in physiological water, mice, read-out: tolerated dose
[12] = intraperitoneal, 1 month of observation, 10 mice
[13] = water/ethylene glycol 60/40, hydration percentage 28%, -10° C. to 45° C., 2° C./min

In the case of C=CCCCCCCCCC(CCCCCCCCCCCC)NC(=O)CNC(=O)[C@H](O)[C@@H](O)[C@H](O[C@@H]1O[C@H](CO)[C@H](O)[C@H](O)[C@H]1O)[C@H](O)CO (stereo partly drawn) [Product 6a, Nα-[1-lactobionocarbonyl]-N-11[trieicos-1-en-yl] glycinamide], the “formation of vesicles (transmission electronic microscopy)” value [1] is reported as “formation of vesicles was also observed”, the “Tc (phase transition temperature)” value [2, 10] is reported as 22 °C and the transition enthalpy [2, 10] is reported as -11.6 mcal/mg. For the same compound, the “effect on growth and viability of the cells” value (shortened to “effect on growth and viability”) [3] was “did not affect the growth and viability of the cells”, the “stability of dispersion (particle size)” value [4] was “at least 1 month” and the “effect of sterilization on vesicles” value ([4]; 121° C. for 15 minutes) was “did not significantly modify these vesicles”. For the same compound, the “average particle diameter Φ after sterilization” value ([4]; after sterilization at 121° C. for 15 minutes) was 61 nm, the “average particle diameter Φ before sterilization” value ([4]; before sterilization at 121° C. for 15 minutes) was 58 nm and the “average particle diameter Φ” value ([4]; dispersion after sonication 15 min) was 49 nm. The MTD at 730 h [5] was 500 mg/kg and the deaths (mice [6]; mouse, in vivo, ip) was “no deaths occurred”.
For C=CCCCCCCCCC(CCC(F)(F)C(F)(F)C(F)(F)C(F)(F)C(F)(F)C(F)(F)C(F)(F)C(F)(F)F)NC(=O)CNC(=O)[C@H](O)[C@@H](O)[C@H](O[C@@H]1O[C@H](CO)[C@H](O)[C@H](O)[C@H]1O)[C@H](O)CO (stereo partly drawn) [Product 6b, N-α-[1-lactobionocarbonyl]-N-3-[1-(perfluooctyl)tridec-12-enyl] glycinamide], the “formation of vesicles (freeze-fracture)” value [7] was “formation of vesicles was established”, the formation of vesicles [1] was “led to the formation of vesicles” and the MTD at 730 h [5, 11] was 500 mg/kg. For the same compound, the deaths (mice [6]; [12]) was “no deaths occurred”.
For C=CCCCCCCCCC(CCC(F)(F)C(F)(F)C(F)(F)C(F)(F)C(F)(F)C(F)(F)F)NC(=O)CNC(=O)[C@H](O)[C@@H](O)[C@H](O[C@@H]1O[C@H](CO)[C@H](O)[C@H](O)[C@H]1O)[C@H](O)CO (stereo partly drawn) [Product 6c], the MTD at 730 h [5, 11] was 500 mg/kg and the deaths (mice [6]; [12]) was “no deaths occurred”.
With CCCCCCCCCCCCC(CCCCCCCCCCC)NC(=O)CNC(=O)[C@H](O)[C@@H](O)[C@H](O[C@@H]1O[C@H](CO)[C@H](O)[C@H](O)[C@H]1O)[C@H](O)CO (stereo partly drawn) [Product 6d, N-α-1-[lactobionocarbonyl]-N-12-[tetraeicosyl] glycinamide] the formation of vesicles [1] was “led to the formation of vesicles”, the “Tc (phase transition temperature)” value [2, 13] was 14 °C and the transition enthalpy [2, 13] was -10.29 mcal/mg.
With CCCCCCCCCC(CCC(F)(F)C(F)(F)C(F)(F)C(F)(F)C(F)(F)C(F)(F)F)NC(=O)CNC(=O)[C@H](O)[C@@H](O)[C@H](O[C@@H]1O[C@H](CO)[C@H](O)[C@H](O)[C@H]1O)[C@H](O)CO (stereo partly drawn) [Product 6e, N-α-1-[lactobionocarbonyl]-N-3-[1-(perfluorohexyl)dodecyl] glycinamide] the “effect on growth and viability” value [3] was “did not affect the growth and viability of the cells”, the “formation of vesicles after sonication” value ([4]; sonication 20 minutes) was “led to the formation of vesicles” and the “average diameter of vesicles after sterilization” value ([4]; sonication 20 minutes, after sterilization) was 318 nm.
With O=C(CNC(=O)[C@H](O)[C@@H](O)[C@H](O[C@@H]1O[C@H](CO)[C@H](O)[C@H](O)[C@H]1O)[C@H](O)CO)NCCC(F)(F)C(F)(F)C(F)(F)C(F)(F)C(F)(F)C(F)(F)F [Product 6h, Nα-1-[lactobionocarbonyl]N-1-[2-(perfluorohexyl)ethyl] glycinamide] the “effect on growth and viability” value [3] was “did not affect the growth and viability of the cells” and the hemolytic activity (human erythrocytes) was “not hemolytic”.
In the case of O=C(CNC(=O)[C@H](O)[C@@H](O)[C@H](O[C@@H]1O[C@H](CO)[C@H](O)[C@H](O)[C@H]1O)[C@H](O)CO)NCCC(F)(F)C(F)(F)C(F)(F)C(F)(F)C(F)(F)C(F)(F)C(F)(F)C(F)(F)F [Product 6i], the MTD at 730 h [8] is reported as 625 mg/kg, the deaths (mice [9]) is reported as “no deaths occurred” and the “effect on growth and viability” value [3] is reported as “did not affect the growth and viability of the cells”. For the same compound, the hemolytic activity (human erythrocytes) was “not hemolytic”.
With CCCCCCCCCC(CCC(F)(F)C(F)(F)C(F)(F)C(F)(F)C(F)(F)C(F)(F)F)NC(=O)CNC(=O)CNC(=O)[C@H](O)[C@@H](O)[C@H](O[C@@H]1O[C@H](CO)[C@H](O)[C@H](O)[C@H]1O)[C@H](O)CO (stereo partly drawn) [Product 7a] the “formation of vesicles (freeze-fracture)” value [7] was “formation of vesicles was established”, the “formation of vesicles upon dispersion with water” value [1] was “forms monolayered vesicles almost instantaneously” and the “formation of vesicles (transmission electronic microscopy)” value [1] was “formation of vesicles was also observed”.
With C=CCCCCCCCCC(CCCCCCCCCCCC)NC(=O)CNC(=O)CNC(=O)[C@H](O)[C@@H](O)[C@H](O[C@@H]1O[C@H](CO)[C@H](O)[C@H](O)[C@H]1O)[C@H](O)CO (stereo partly drawn) [Product 7b, N-α-(N-α-1-lactobionocarbonyl)-glycyl-N-11-(trieicos-1-enyl) glycinamide] the “formation of vesicles (freeze-fracture)” value [7] was “formation of vesicles was established”, the “formation of vesicles upon dispersion with water” value [1] was “forms monolayered vesicles almost instantaneously” and the “formation of vesicles (transmission electronic microscopy)” value [1] was “formation of vesicles was also observed”. For the same compound, the “mean diameter of liposomal dispersion” value ([4]; 60 mM in citric acid 1M pH=4, sonication 5 min, room temperature) was 35 nm.
